Assay results as given in PubChem BioAssay AID2748 (The Scripps Research Institute Molecular Screening Center, 2010).

Target: Heat shock protein HSP 90-alpha (Homo sapiens) (UniProt P07900)
Test: inhibition of human Hsp90, late-stage follow-up, biochemical, luminescence (AID 2748)
Conditions: Hsp90 biochemical assay, luminescence read-out

Compared with `Cc1cc(NO)nc(-c2ccc(Br)cc2)n1`, `Cc1c(-c2nc(-c3ccc(C(C)(C)C)cc3)no2)n(C)oc1=O` is lower in IC50: 871 nM for the first, < 3 nM for the second. The second is the more potent here.

First: CCc1ccc(OCc2ccc(C(=O)OC)o2)cc1
Second: CCOC(=O)C1=C(c2ccc(OC)cc2)C(=O)c2ccccc2C1=O
The IC50 of the first is 3.3-fold higher: 1030 nM for the first, 308 nM for the second.

First: COc1ccccc1NC(=O)c1coc(=O)c(Br)c1
Second: CC(=O)Nc1ccccc1OCC(=O)c1cc(C)n(Cc2cccs2)c1C
The IC50 of the first is 4.6-fold higher: 457 nM for the first, 100 nM for the second.

First: Cc1c(-c2nc(-c3ccc(C(F)(F)F)cc3)no2)n(C)oc1=O
Second: CCOC(=O)c1csc(NC(=O)c2cc3ccccc3o2)n1
The IC50 of the first is 1.8-fold higher: 1600 nM for the first, 878 nM for the second. The second is the more potent here.

`COc1cc(C=NNc2ccc(Cl)c(C(=O)O)c2)ccc1OC(=O)c1ccc(F)cc1` gave an IC50 of 1820 nM.
